Experimental data as given in PMC6100056, “Antitumor Effects and Delivery Profiles of Menahydroquinone-4 Prodrugs with Ionic or Nonionic Promoiety to Hepatocellular Carcinoma Cells” (Molecules : A Journal of Synthetic Chemistry and Natural …, 2018).
Counter-ions that a name gives are not always drawn.

Legend:
esterase = assay: Regeneration (hydrolysis) of MKH-ester derivatives to MKH in S9 fractions; format: in vitro ADME; details: human, pH 7.4, 37 °C, Michaelis-Menten fit, 95% confidence interval in square brackets
Procedure: To assess the regeneration to the parental form, MKH, from the MKH-ester derivatives by an esterase of HCC, MKH-ACT, MKH-DMG and MKH-SUC were incubated at 37 °C in S9 fractions obtained from PLC/PRF/5 or SK-Hep-1 cells. The velocities of MK-4 generated in the S9 fractions were plotted as the amount of MKH, because MKH is rapidly oxidized to MK-4 during drug extraction and measurement. The regeneration versus […] profile was fitted by the Michaelis--Menten model (shown in Figure 4) and the kinetic parameters were calculated (Table 2). The regeneration velocities of MKH-ACT in both PLC/PRF/5 and SK-Hep-1 cells reached a plateau at about 3 μM MKH-ACT. MKH-DMG reached a plateau in PLC/PRF/5 and SK-Hep-1 cells at 25 μM and about 6 μM MKH-DMG, respectively. MKH-SUC reached a plateau in PLC/PRF/5 and SK-Hep-1 cells at about 0.6 μM and about 1.5 μM MKH-SUC, respectively. The level scale of MKH regeneration from MKH-SUC was about 100-fold higher than those of MKH-ACT and MKH-DMG.
The hydrolysis of the esters was performed at 37 °C in S9 fractions of PLC/PRF/5 and SK-Hep-1 cells after ultrasonic homogenization and centrifugation (10,000× g, 1 h) in isotonic phosphate buffer (pH 7.4). Stock solutions of each ester were made in the same manner as the cell viability assay, and the solutions were diluted with 0.1% w/v albumin in PBS. The enzymatic reactions were initiated by adding 5 μL of the diluted of each ester into amber test tubes containing 95 μL of preheated S9 fractions. A BCA protein assay (PIERCE/Thermo Fisher Scientific Inc., Waltham, MA, USA) was used to determine protein concentrations, and the final S9 concentration was adjusted to 1.0 mg of protein/mL in PBS. The solutions were incubated at 37 °C, and at appropriate times, the aliquots from the reaction were combined with an equal volume of methanol and three times volume of n-hexane. The samples were vortexed for 2 min and centrifuged at 1750× g for 10 min. The upper layer (n-hexane) was collected and evaporated under nitrogen. The residue was reconstituted with 100 μL of methanol, sonicated for 10 s and subjected to LC-MS/MS analysis as described below.
The LC-MS/MS analysis was performed with the same instrument under the same conditions as in an earlier report, except for the following MS/MS-multiple reaction monitoring (MRM) setting and retention times: MRM: m/z 532→171, [M + H]^+ MKH-ACT adduct; m/z 664→187, [M + NH4]^+ MKH-SUC adduct; retention times: MKH-ACT, 1.7 min; and MKH-SUC, 1.1 min.
(§1) For the determination of Km and Vmax for the uptake and enzymatic activation of MKH-esters, concentration-dependency data were fit to the Michaelis--Menten equation:V = Vmax·[S]/(Km + [S])(1) where V represents the velocity of action between the substrate and transportation/enzymatic reaction, [S] refers to the concentration of the substrate and Km is defined as the concentration of substrate at the half-maximal rate of action (Vmax). Data were analyzed by GraphPad Prism (GraphPad Software).

[1] = test system: cyclin D1 and CDK4 in PLC/PRF/5 cells; assay: Western blotting of cell cycle regulatory proteins; format: cell-based; details: 24 h after treatment
Procedure: We previously reported that MKH-DMG regulates cell cycle-related proteins as a mechanism of MKH-DMG-induced growth inhibition in PLC/PRF/5, Hep3B and SK-Hep-1 cells. Thus, to clarify the mechanisms of the growth inhibition induced by the MKH-ester prodrugs, we analyzed cell cycle-related proteins using Western blotting (Figure 7).
HCC cells were plated at 1.5 × 10^5 cells/well in 6-well plates and allowed to attach for 48 h. Cells were treated with MK-4, MKH-ACT, MKH-DMG or MKH-SUC for 24 h. Western blotting was performed as described previously.

SK-Hep-1 cells = assay: Uptake of MKH-ester derivatives in HCC cells (Michaelis-Menten kinetics); format: in vitro ADME; details: Michaelis-Menten fit, 95% confidence interval in square brackets
Procedure: (§2) To assess the uptake of the intrinsic MKH-ester derivatives as the first step of MKH delivery into HCC cells, the velocities of uptake of MKH-ester derivatives were plotted and fitted with the Michaelis--Menten model (as shown in Figure 3), and the calculated kinetic parameters were determined (Table 1). All three derivatives increased in both PLC/PRF/5 and SK-Hep-1 cells in a dose-dependent manner. The uptake of MKH-SUC was clearly higher than that of MKH-DMG and MKH-ACT at all concentrations examined. The ratio of the […] (Vmax/Km) for MKH-SUC was about 5- to 10-fold higher than those for MKH-ACT and MKH-DMG in both cell lines.
(§3) HCC cells were plated at 1.5 × 10^5 cells/well in 6-well plates and allowed to attach for 48 h. Cells were cultured in medium containing MK-4, MKH-ACT, MKH-DMG or MKH-SUC for various intervals. After the drug exposure, media were removed, and cells were washed three times with PBS. Cells were collected in 1 mL of PBS and sonicated. The cell homogenates were combined with an equal volume of methanol and three times volume of n-hexane, vortexed for 2 min and centrifuged at 1750× g for 10 min. The organic layer was evaporated under N2 gas. The residue was reconstituted with 100 μL of methanol, sonicated for 10 s and subjected to LC-UV or LC-MS/MS analysis, as described below. The protein concentration of the cell homogenate was determined using a BCA protein assay kit.
(§4) The LC system was the same as that described in the 4.8.1 LC-MS/MS section, and the UV detector was a Prominence SPD-20A (Shimadzu Corp., Kyoto, Japan). Separations were performed on the same column mentioned in the 4.8.1 LC-MS/MS section and monitored at a wavelength of 240 nm. The mobile flow was a binary gradient: (A) 0.1% acetic acid in water and (B) 0.1% acetic acid in methanol. The total flow rate was 0.3 mL/min; 0 min at 80% B, 1 min at 80% B, 4.0 min at 100% B, 7.0 min at 100% B and 8.0 min at 80% B. The Column temperature was 40 °C. The retention times were as follows: MKH-DMG, 9.2 min; MKH-ACT, 8.2 min; and MKH-SUC, 6.6 min.
as §1

PLC/PRF/5 cells = assay: as above; format: in vitro ADME; details: for Vmax (uptake of MKH-ester): PLC/PRF/5 cells, Michaelis-Menten fit, 95% confidence interval in square brackets
Procedure: as §2, §3, §4, §1

[2] = as above; format: in vitro ADME; details: human, Michaelis-Menten fit, 95% confidence interval in square brackets
Procedure: as §2, §3, §4, §1

[3] = S9 fraction of PLC/PRF/5 cells, S9 of PLC/PRF/5 cells
[4] = S9 fraction of SK-Hep-1 cells, S9 of SK-Hep-1 cells
[5] = PLC/PRF/5 cells (HCC cell line), PLC/PRF/5 cells

Row | Km (esterase; [3]) [µM] | Km (esterase; [4]) [µM] | Km [2, 5] [µM] | Km ([2]; SK-Hep-1 cells (HCC cell line)) [µM] | Vmax/Km of uptake, higher than those for MKH-ACT and MKH-DMG (PLC/PRF/5 cells; in both cell lines (PLC/PRF/5 and SK-Hep-1)) | SMILES | Effect on cyclin D1 and CDK4 expression compared with controls [1] | Vmax (uptake of MKH-ester) (SK-Hep-1 cells) | Vmax (uptake of MKH-ester) (PLC/PRF/5 cells)
1 | 1.42 | 1.32 | 31.9 | 227 |  | CC(=O)Oc1c(C)c(C/C=C(\C)CC/C=C(\C)CC/C=C(\C)CCC=C(C)C)c(OC(C)=O)c2ccccc12 [MKH-ACT, Menahydroquinone-4 1,4-bis acetate] | did not affect | 20.3 [−9.47 to 50.0] nmol·mg of Protein^−1·h^−1 | 2.76 [1.70 to 3.81] nmol·mg of Protein^−1·h^−1
2 | 13.6 | 3.24 | 447 | 556 |  | CC(C)=CCC/C(C)=C/CC/C(C)=C/CC/C(C)=C/Cc1c(C)c(OC(=O)CN(C)C)c2ccccc2c1OC(=O)CN(C)C [MKH-DMG, Menahydroquinone-4 1,4-bis-N,N-dimethylglycinate hydrochloride] | clearly suppressed | 62.6 [4.69 to 121] nmol·mg of Protein^−1·h^−1 | 28.9 [−4.27 to 62.1] nmol·mg of Protein^−1·h^−1
3 | 0.399 | 0.74 | 712 | 381 | 5- to 10 fold | CC(C)=CCC/C(C)=C/CC/C(C)=C/CC/C(C)=C/Cc1c(C)c(OC(=O)CCC(=O)O)c2ccccc2c1OC(=O)CCC(=O)O [MKH-SUC, Menahydroquinone-4 1,4-bis hemisuccinate] | clearly suppressed | 261 [74.7 to 448] nmol·mg of Protein^−1·h^−1 | 345 [84.0 to 606] nmol·mg of Protein^−1·h^−1
